Assay results taken from PMC10897476, “Pyridylpiperazine efflux pump inhibitor boosts in vivo antibiotic efficacy against K. pneumoniae” (EMBO Molecular Medicine, 2023).
Values joined by “and” are separate entries in the source; they are usually repeats but may differ in a detail not shown here. Identical values can stand only once. Marks after values point to notes of the source that are not given here.

Columns and labels:
[1] = tested on: K. pneumoniae AcrB^V448E; experiment: Checkerboard assay levofloxacin x EPI, AcrB V448E mutant; assay type: cell-based, Klebsiella pneumoniae; settings: for percentage resazurin turnover: listed as Lev
Experimental: (§1) MIC experiments were carried out according to the CLSI guidelines (CLSI [2023]). Overnight cultures were diluted to an OD600 = 0.001 in CAMHB followed by addition of efflux pump inhibitors (EPIs) at a final concentration of 100 µM. […] Plates were incubated at 37 °C for up to 20 h. Bacterial viability was evaluated using the resazurin microtitre assay (REMA) and measured by fluorescence using a Tecan Spaert multimode plate reader (Ex: 530 nm Em: 590 nm). MICs were defined as the concentration that prevented 90% of resazurin turnover compared to the non-treated bacteria.
Bacterial suspensions, incubation and plate readouts were carried out as described above.

[2] = tested on: K. pneumoniae RamR^mut (K124*stop); experiment: MIC of antibiotics with and without EPI (REMA), RamR mutant; assay type: cell-based, Klebsiella pneumoniae; settings: for Minimum Inhibitory Concentration: K. pneumoniae RamR^mut
Experimental: as §1
Mutations in acrB or ramR identified in the BDM88855.HCl (1’) resistant mutant (a.k.a., KPJC11) were introduced individually into K. pneumoniae ATCC 43816 chromosome by allelic exchange (Cianfanelli et al, [2020]). Briefly, 1-kb PCR products centred around each point mutation were generated by amplifying acrB with primers RH1251 ([…][…]) and RH1252 ([…][…]) or ramR with primers RH1249 ([…][…]) and RH1250 ([…][…]) from KPJC11 genomic DNA. PCR fragments were cloned into pFOK (Cianfanelli et al, [2020]) using NEB-building kit ([New England Biolabs]) to generate pEP1533 and pEP1534. Correct plasmids were confirmed by sequencing and introduced into K. pneumoniae ATCC43816 WT via conjugation with the MFDpir+ E. coli donor strain. Exconjugants were selected on kanamycin (50 mg/L) plates at 37 °C and plasmid chromosomal integration was checked by PCR. […] The next day, cultures were diluted and plated onto LB agar. Isolated colonies were then patched onto LB plates with or without kanamycin (50 mg/L) and Km^S candidates were evaluated for correct allelic exchange via acrB or ramR sequencing and then WGS to confirm no additional mutations were introduced.

[3] = Lev 0.24 ng/mL, BDM91288 0.00 uM
[4] = Lev 0.49 ng/mL, BDM91288 0.00 uM
[5] = Lev 0.98 ng/mL, BDM91288 0.00 uM
[6] = Lev 1.95 ng/mL, BDM91288 0.00 uM
[7] = Lev 3.91 ng/mL, BDM91288 0.00 uM
[8] = Lev 7.81 ng/mL, BDM91288 0.00 uM
[9] = Lev 15.63 ng/mL, BDM91288 0.00 uM
[10] = Lev 31.25 ng/mL, BDM91288 0.00 uM
[11] = Lev 62.50 ng/mL, BDM91288 0.00 uM
[12] = Lev 500.00 ng/mL, BDM91288 0.00 uM
[13] = Lev 1000 ng/mL, BDM91288 0.00 uM

Q: For `C[C@H]1COc2c(N3CCN(C)CC3)c(F)cc3c(=O)c(C(=O)O)cn1c23` [Levofloxacin], which “Median REMA values” [1, 3] is on record?
A: Its value is 88%.

Q: What about the percentage resazurin turnover [1, 3] of the same molecule?
A: Its percentage resazurin turnover is 93% and 88% and 53%.

Q: And the “Median REMA values” ([1]; Lev 0.24 ng/mL, PABN 0.00 uM)?
A: The value was 81%.

Q: What about the percentage resazurin turnover ([1]; Lev 0.24 ng/mL, PABN 0.00 uM) of the same molecule?
A: The percentage resazurin turnover was 88% and 81% and 56%.

Q: And the “Median REMA values” [1, 4]?
A: Its value is 105%.

Q: What about the percentage resazurin turnover [1, 4] of the same molecule?
A: Its percentage resazurin turnover is 102% and 108% and 105%.

Q: What about the “Median REMA values” ([1]; Lev 0.49 ng/mL, PABN 0.00 uM) of the same molecule?
A: Its value is 70%.

Q: What about the percentage resazurin turnover ([1]; Lev 0.49 ng/mL, PABN 0.00 uM) of the same molecule?
A: The percentage resazurin turnover was 68% and 101% and 70%.

Q: What about the “Median REMA values” [1, 5] of the same molecule?
A: Its value is 98%.

Q: What about the percentage resazurin turnover [1, 5] of the same molecule?
A: Its percentage resazurin turnover is 98% and 105% and 79%.

Q: And the “Median REMA values” ([1]; Lev 0.98 ng/mL, PABN 0.00 uM)?
A: Its value is 106%.

Q: What about the percentage resazurin turnover ([1]; Lev 0.98 ng/mL, PABN 0.00 uM) of the same molecule?
A: The percentage resazurin turnover was 106% and 107% and 72%.

Q: And the “Median REMA values” [1, 6]?
A: The value was 108%.

Q: And the percentage resazurin turnover [1, 6]?
A: Its percentage resazurin turnover is 108% and 109% and 104%.

Q: And the “Median REMA values” ([1]; Lev 1.95 ng/mL, PABN 0.00 uM)?
A: The value was 104%.

Q: And the percentage resazurin turnover ([1]; Lev 1.95 ng/mL, PABN 0.00 uM)?
A: Its percentage resazurin turnover is 104% and 118% and 78%.

Q: And the “Median REMA values” [1, 7]?
A: The value was 107%.

Q: What about the percentage resazurin turnover [1, 7] of the same molecule?
A: The percentage resazurin turnover was 107% and 111% and 81%.

Q: What about the “Median REMA values” ([1]; Lev 3.91 ng/mL, PABN 0.00 uM) of the same molecule?
A: Its value is 101%.

Q: And the percentage resazurin turnover ([1]; Lev 3.91 ng/mL, PABN 0.00 uM)?
A: Its percentage resazurin turnover is 101% and 111% and 73%.

Q: And the “Median REMA values” [1, 8]?
A: The value was 111%.

Q: What about the percentage resazurin turnover [1, 8] of the same molecule?
A: Its percentage resazurin turnover is 111% and 76%.

Q: And the “Median REMA values” ([1]; Lev 7.81 ng/mL, PABN 0.00 uM)?
A: Its value is 91%.

Q: And the percentage resazurin turnover ([1]; Lev 7.81 ng/mL, PABN 0.00 uM)?
A: Its percentage resazurin turnover is 91% and 110% and 79%.

Q: And the “Median REMA values” [1, 9]?
A: The value was 117%.

Q: And the percentage resazurin turnover [1, 9]?
A: The percentage resazurin turnover was 117% and 105%.

Q: What about the “Median REMA values” ([1]; Lev 15.63 ng/mL, PABN 0.00 uM) of the same molecule?
A: The value was 89%.

Q: What about the percentage resazurin turnover ([1]; Lev 15.63 ng/mL, PABN 0.00 uM) of the same molecule?
A: The percentage resazurin turnover was 119% and 89% and 72%.

Q: What about the “Median REMA values” [1, 10] of the same molecule?
A: The value was 91%.

Q: What about the percentage resazurin turnover [1, 10] of the same molecule?
A: Its percentage resazurin turnover is 91% and 87% and 102%.

Q: What about the “Median REMA values” ([1]; Lev 31.25 ng/mL, PABN 0.00 uM) of the same molecule?
A: Its value is 81%.

Q: What about the percentage resazurin turnover ([1]; Lev 31.25 ng/mL, PABN 0.00 uM) of the same molecule?
A: The percentage resazurin turnover was 81% and 70%.

Q: What about the “Median REMA values” [1, 11] of the same molecule?
A: The value was -0.206%.

Q: And the percentage resazurin turnover [1, 11]?
A: The percentage resazurin turnover was -0.206% and -0.287% and -0.155%.

Q: What about the “Median REMA values” ([1]; Lev 62.50 ng/mL, PABN 0.00 uM) of the same molecule?
A: The value was -0.817%.

Q: What about the percentage resazurin turnover ([1]; Lev 62.50 ng/mL, PABN 0.00 uM) of the same molecule?
A: Its percentage resazurin turnover is -0.685% and -0.817% and -0.819%.

Q: And the “Median REMA values” [1, 12]?
A: The value was -0.289%.

Q: What about the percentage resazurin turnover [1, 12] of the same molecule?
A: The percentage resazurin turnover was -0.289% and -0.371% and 0.114%.

Q: And the “Median REMA values” ([1]; Lev 500.00 ng/mL, PABN 0.00 uM)?
A: Its value is -0.75%.

Q: And the percentage resazurin turnover ([1]; Lev 500.00 ng/mL, PABN 0.00 uM)?
A: Its percentage resazurin turnover is -0.676% and -1% and -0.75%.

Q: And the “Median REMA values” [1, 13]?
A: The value was 0.0503%.

Q: And the percentage resazurin turnover [1, 13]?
A: Its percentage resazurin turnover is 0.0503% and -0.121% and 0.102%.

Q: What about the “Median REMA values” ([1]; Lev 1000 ng/mL, PABN 0.00 uM) of the same molecule?
A: The value was -0.383%.

Q: What about the percentage resazurin turnover ([1]; Lev 1000 ng/mL, PABN 0.00 uM) of the same molecule?
A: The percentage resazurin turnover was -0.346% and -0.646% and -0.383%.

Q: And the “Minimum Inhibitory Concentration” value ([2]; + 100 µM 1')?
A: The value was 0.08^# mg/L.

Q: And the “Minimum Inhibitory Concentration” value ([2]; + 100 µM 5)?
A: Its value is 0.05^# mg/L.

Q: And the “Minimum Inhibitory Concentration” value ([2]; + 100 µM PAβN)?
A: The value was 0.04^# mg/L.

Q: And the MIC ([2]; Klebsiella pneumoniae, read-out: Minimum Inhibitory Concentration)?
A: Its MIC is 0.64 µg/mL.
